Test systems include HCT-116 colon; HCT-15 colon; HOP-62 NSCLC; KM12 colon; NCI-H460 lung; OVCAR-3 ovarian; RPMI-8226 leukemia; SF-295 CNS; SK-MEL-2 melanoma; SK-MEL-5 melanoma; SN12C renal; SR leukemia; U251 CNS.
What all share (assay): inhibition of tumour cell growth, NCI panel, 48 h

These results are taken from PubChem BioAssay (NCI).

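Dose response: 5 concentrations. Exposure: 48 h. Format: 96-well plates. Endpoint: linear interpolation; highest concentration if not reached. GI50 is the concentration that inhibits growth by half. TGI marks complete inhibition of growth.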

In the case of `O=C(O)c1ccccc1CN1CCCC(C(=O)O)C1` (stereo not drawn), the TGI in the assay with HCT-116 colon, in the assay with HCT-15 colon, in the assay on HOP-62 NSCLC, in the assay with KM12 colon, in the assay on NCI-H460 lung and in the assay with OVCAR-3 ovarian was above 100 µM throughout. In addition, the TGI in the assay on RPMI-8226 leukemia, in the assay with SF-295 CNS, in the assay with SK-MEL-2 melanoma, in the assay on SK-MEL-5 melanoma, in the assay with SN12C renal and in the assay with SR leukemia was above 100 µM throughout. For the same molecule, the TGI with U251 CNS is above 100 µM.

With `CC(C)(C)[Si](C)(C)OCC1OC(n2cnc3c(N)ncnc32)C2OC(=S)OC12` (stereo not drawn), the TGI is above 100 µM in the assay on HCT-116 colon; above 100 µM in the assay with HCT-15 colon; above 100 µM in the assay with HOP-62 NSCLC; above 100 µM in the assay on KM12 colon; above 100 µM with NCI-H460 lung; 91.9 µM in the assay on OVCAR-3 ovarian. The TGI was above 100 µM with RPMI-8226 leukemia; above 100 µM in the assay with SF-295 CNS; 74.7 µM in the assay on SK-MEL-2 melanoma; 36.1 µM with SK-MEL-5 melanoma; above 100 µM in the assay on SN12C renal; above 100 µM with SR leukemia. Further, the TGI in the assay with U251 CNS was determined as 68.2 µM.

For the molecule `Nc1ccccc1N`, the TGI in the assay on HCT-116 colon, in the assay on HCT-15 colon, with HOP-62 NSCLC, in the assay with KM12 colon, in the assay on NCI-H460 lung and in the assay with OVCAR-3 ovarian was above 100 µM each time. For the same molecule, the TGI in the assay with RPMI-8226 leukemia, with SF-295 CNS, with SK-MEL-2 melanoma, in the assay on SK-MEL-5 melanoma, with SN12C renal and with SR leukemia was above 100 µM each time. Also, the TGI with U251 CNS was above 100 µM.

For `CCOc1ccc(/C=C2\N=C(c3ccccc3)OC2=O)cc1`, the TGI in the assay on HCT-15 colon, with HOP-62 NSCLC, in the assay on KM12 colon, in the assay on NCI-H460 lung, with OVCAR-3 ovarian and in the assay on RPMI-8226 leukemia was above 100 µM each time. In addition, the TGI in the assay on SF-295 CNS, with SK-MEL-2 melanoma, with SK-MEL-5 melanoma, in the assay with SR leukemia and in the assay on U251 CNS was above 100 µM each time.

In the case of `NCCCCCC(CCN)SCC1OC(n2cnc3c(N)ncnc32)C(O)C1O` (stereo not drawn), the TGI in the assay on HCT-116 colon, in the assay on HCT-15 colon, in the assay on HOP-62 NSCLC, in the assay with KM12 colon, in the assay with NCI-H460 lung and in the assay on OVCAR-3 ovarian was above 1500 µM each time. Besides, the TGI in the assay with RPMI-8226 leukemia is 1140 µM; with SF-295 CNS it was above 1500 µM; with SK-MEL-2 melanoma, above 1500 µM; in the assay with SK-MEL-5 melanoma, above 1500 µM; in the assay on SN12C renal, above 1180 µM; in the assay on U251 CNS it was above 1500 µM.

In the case of `Cc1cccc2cc(/C=C/C(=O)/C=C/c3ccc(Cl)cc3)c(=O)[nH]c12`, the GI50 with HCT-116 colon is 0.259 µM; in the assay with HOP-62 NSCLC, above 100 µM; with NCI-H460 lung, above 100 µM; in the assay on RPMI-8226 leukemia, 0.331 µM; in the assay with SK-MEL-2 melanoma, above 100 µM; with SK-MEL-5 melanoma, above 100 µM. Moreover, in the assay on SR leukemia, the GI50 is 2.72 µM. Besides, the TGI was 0.635 µM in the assay with HCT-116 colon; above 100 µM in the assay on HOP-62 NSCLC; above 100 µM in the assay with NCI-H460 lung; 1.26 µM in the assay with RPMI-8226 leukemia; above 100 µM in the assay on SK-MEL-2 melanoma; above 100 µM with SK-MEL-5 melanoma. The molecule further had a TGI with SR leukemia of 11.6 µM.

As for `COc1ccc(-c2cc(N3CCN(c4ccc(Cl)cc4)CC3)c(C#N)c(=O)o2)cc1`, the TGI in the assay on HCT-116 colon was 32.7 µM; in the assay with HCT-15 colon, above 100 µM; in the assay with KM12 colon, above 100 µM; in the assay with NCI-H460 lung it was 28.9 µM; with RPMI-8226 leukemia it was 87.9 µM; with SF-295 CNS it was 16.4 µM. The TGI in the assay with SK-MEL-2 melanoma was 45.3 µM; in the assay with SK-MEL-5 melanoma, 31.3 µM; in the assay with SN12C renal, above 100 µM; in the assay with SR leukemia, above 100 µM; in the assay with U251 CNS, 58.2 µM.

With `CN1C2CCC1/C(=C/c1cccc3c1OCO3)C(=O)/C2=C\c1cccc2c1OCO2`, the TGI was above 100 µM with HCT-116 colon; above 100 µM in the assay with HCT-15 colon; 41.2 µM with HOP-62 NSCLC; above 100 µM in the assay on KM12 colon; above 100 µM with NCI-H460 lung; above 100 µM with OVCAR-3 ovarian. Besides, the TGI was above 100 µM in the assay on RPMI-8226 leukemia; 84.6 µM in the assay with SF-295 CNS; above 100 µM in the assay with SK-MEL-2 melanoma; above 100 µM with SK-MEL-5 melanoma; above 100 µM in the assay on SN12C renal; above 100 µM in the assay with SR leukemia. For the same molecule, the TGI with U251 CNS came to 63.4 µM.

For `COC(=O)/C=C1\SC2(OC1=Nc1ccccc1)C1CC3CC(C1)CC2C3` (stereo not drawn), the TGI with HCT-116 colon, with HCT-15 colon, in the assay with HOP-62 NSCLC, in the assay on KM12 colon, in the assay on NCI-H460 lung and with OVCAR-3 ovarian was above 100 µM each time. Also, the TGI in the assay with RPMI-8226 leukemia, with SF-295 CNS, with SK-MEL-2 melanoma, with SK-MEL-5 melanoma, in the assay on SN12C renal and in the assay with SR leukemia was above 100 µM throughout. This molecule registered a TGI in the assay on U251 CNS above 100 µM.

With `CCOC(=O)CC1=N/C(=N/C(=N)N[N+](=O)[O-])SC1`, the TGI in the assay with HCT-116 colon, with HCT-15 colon, with HOP-62 NSCLC, with KM12 colon, in the assay on NCI-H460 lung and in the assay with OVCAR-3 ovarian was above 100 µM in each case. Also, the TGI with SF-295 CNS, in the assay with SK-MEL-2 melanoma, with SK-MEL-5 melanoma, with SN12C renal and in the assay on U251 CNS was above 100 µM in each case.

Consider `Fc1ccc(Nc2nc(Cl)c3[nH]cnc3n2)cc1Cl`, for which the TGI in the assay with HCT-116 colon, with HCT-15 colon, in the assay with HOP-62 NSCLC, in the assay on KM12 colon, with NCI-H460 lung and in the assay with OVCAR-3 ovarian was above 100 µM throughout. Besides, the TGI in the assay on RPMI-8226 leukemia, with SF-295 CNS, in the assay with SK-MEL-2 melanoma, in the assay with SK-MEL-5 melanoma, in the assay on SN12C renal and in the assay on SR leukemia was above 100 µM in each case. This molecule showed a TGI with U251 CNS above 100 µM.

As for `NC(Cc1ccc(CP(=O)(O)O)cc1)C(=O)O` (stereo not drawn), the TGI in the assay on HCT-116 colon, in the assay with HCT-15 colon, in the assay on KM12 colon, with NCI-H460 lung, in the assay with OVCAR-3 ovarian and in the assay on RPMI-8226 leukemia was above 100 µM in each case. Further, the TGI with SF-295 CNS, in the assay on SK-MEL-2 melanoma, with SK-MEL-5 melanoma, with SN12C renal, in the assay on SR leukemia and with U251 CNS was above 100 µM each time.

On to `C/C(=N/NC(=O)c1ccncc1)C(F)(F)F`, for which the TGI in the assay on HCT-116 colon, in the assay on HCT-15 colon, in the assay with HOP-62 NSCLC, in the assay with KM12 colon, in the assay on OVCAR-3 ovarian and in the assay on RPMI-8226 leukemia was above 100 µM in each case. The TGI in the assay on SF-295 CNS, in the assay on SK-MEL-2 melanoma, with SK-MEL-5 melanoma, in the assay on SN12C renal, in the assay on SR leukemia and with U251 CNS was above 100 µM each time.

As to `C=C=C[P+](c1ccccc1)(c1ccccc1)c1ccccc1`, the TGI with HCT-116 colon is 15.5 µM; in the assay with HCT-15 colon, 73.8 µM; in the assay with HOP-62 NSCLC, above 100 µM; in the assay on KM12 colon, 28.2 µM; in the assay with NCI-H460 lung, 45.7 µM; in the assay with OVCAR-3 ovarian, 34.4 µM. Moreover, the TGI amounted to 6.37 µM with RPMI-8226 leukemia; 26.5 µM in the assay on SK-MEL-2 melanoma; 23.3 µM in the assay with SK-MEL-5 melanoma; 17.8 µM in the assay on SN12C renal; 60.8 µM in the assay with SR leukemia; 14.3 µM with U251 CNS.
